Reference: US8476265B2, “Compounds-801” (AstraZeneca AB, priority 2010, dated 2013)

Tests used:
[1] = target: T1, human muscarinic acetylcholine M3 receptor (Homo sapiens, UniProt P20309); experiment: Muscarinic 3 receptor binding assay ([3H]NMS competition, SPA), pIC50; conditions: [3H]NMS 0.1 nM, CHO-K1 cell membranes expressing human M3 receptor
T1 construct: expressed in transfected cells; host or cells: CHO-K1 (Chinese Hamster Ovary) cell membranes
Method in brief: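 SPA beads precoated with human M3-expressing CHO-K1 membranes were incubated 16 h at room temperature with serially diluted compound and 0.1 nM [3H]NMS (pH 7.4 HEPES buffer, MgCl2, BSA, 1% DMSO). Atropine (1 μM) defined non-specific binding; pIC50 is the 50% reduction in specific binding.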

[2] = target: T2, Adrenergic β2 (Homo sapiens, UniProt P07550); experiment: Adrenergic β2 mediated cAMP production in H292 cells, single concentration 1 μM; format: cell-based; conditions: NCI-H292, 1 μM compound, cAMP as percentage of the maximum response generated by 1E-07M formoterol, read-out: β2 % effect @1 uM
T2 construct: Adherent H292 cells are removed from tissue culture flasks by treatment with Accutase™ cell detachment solution; endogenous in cells; host or cells: H292 cells
Method in brief: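 H292 cells pretreated with rolipram (300 μM final) 10 min, then compound at 1 μM final, 1% DMSO, 60 min at room temperature in HBSS/10 mM HEPES pH 7.4/5 mM glucose. Lysate cAMP quantified by AlphaScreen against a standard curve, as % of maximal response to 1E-07M formoterol.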

[3] = target: T2, Adrenergic β2; experiment: Adrenergic β2 mediated cAMP production in H292 cells (AlphaScreen), concentration response; format: cell-based; conditions: for EC50: 60 min, 300 μM rolipram, read-out: β2 pEC50 (converted); for β2 Intrinsic Activity: fraction relative to the maximum activity determined for formoterol
Method in brief: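 Intracellular cAMP in lysates read by AlphaScreen, calibrated with cAMP standards; curves fitted for pEC50, with intrinsic activity as a fraction of formoterol's maximum. Agonist exposure 60 min at room temperature after 10 min rolipram (300 μM final), 1% DMSO, HEPES-buffered HBSS pH 7.4.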

[4] = target: T1, human muscarinic acetylcholine M3 receptor; experiment: Muscarinic 3 receptor binding assay ([3H]NMS competition, SPA), single concentration 1 μM; conditions: 1 μM compound; % inhibition specific [3H]-NMS binding
Method in brief: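 CHO-K1 membranes expressing human M3 on SPA beads, competition with 0.1 nM [3H]NMS (quarter Kd) in 20 mM HEPES pH 7.4, 5 mM MgCl2, 0.1% BSA, 1% DMSO; compound at 1 μM. 16 h at room temperature. Value is % inhibition of specific binding, non-specific defined with 1 μM atropine.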

T2 sequence (P07550 whole entry): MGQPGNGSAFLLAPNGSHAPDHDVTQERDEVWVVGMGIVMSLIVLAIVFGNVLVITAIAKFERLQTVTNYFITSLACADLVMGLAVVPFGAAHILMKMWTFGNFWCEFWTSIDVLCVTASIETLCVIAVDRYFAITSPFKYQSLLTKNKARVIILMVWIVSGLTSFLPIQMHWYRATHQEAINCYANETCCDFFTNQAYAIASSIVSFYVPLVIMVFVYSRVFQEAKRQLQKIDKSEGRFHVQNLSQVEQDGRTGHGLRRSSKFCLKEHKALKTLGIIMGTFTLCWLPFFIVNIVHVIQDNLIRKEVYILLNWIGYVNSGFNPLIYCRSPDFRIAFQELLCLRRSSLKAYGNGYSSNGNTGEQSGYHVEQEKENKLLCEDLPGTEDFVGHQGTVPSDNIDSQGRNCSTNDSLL
T1 sequence (P20309 whole entry): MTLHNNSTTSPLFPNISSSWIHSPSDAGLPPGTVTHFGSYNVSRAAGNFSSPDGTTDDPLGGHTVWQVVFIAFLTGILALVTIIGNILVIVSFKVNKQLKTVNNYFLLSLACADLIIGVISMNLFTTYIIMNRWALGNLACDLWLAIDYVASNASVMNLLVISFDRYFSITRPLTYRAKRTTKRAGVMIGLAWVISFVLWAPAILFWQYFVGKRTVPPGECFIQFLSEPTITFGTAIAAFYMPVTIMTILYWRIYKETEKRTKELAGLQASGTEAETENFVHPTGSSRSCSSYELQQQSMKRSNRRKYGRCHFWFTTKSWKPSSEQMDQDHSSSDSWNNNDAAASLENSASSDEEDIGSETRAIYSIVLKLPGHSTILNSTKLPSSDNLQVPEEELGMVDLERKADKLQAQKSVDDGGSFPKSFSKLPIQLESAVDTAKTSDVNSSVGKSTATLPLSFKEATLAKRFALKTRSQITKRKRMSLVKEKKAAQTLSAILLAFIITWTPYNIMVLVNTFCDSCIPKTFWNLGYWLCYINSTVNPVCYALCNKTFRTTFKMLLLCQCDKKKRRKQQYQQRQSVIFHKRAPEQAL

| Compound | IC50 [1] | percent of formoterol maximum response at 1 µM [2] | EC50 [3] | β2 Intrinsic Activity [3] | inhibition at 1 µM [4] |
| --- | --- | --- | --- | --- | --- |
| O=C1COc2c(CCNCCN(C(=O)CCOCCc3cccc(CN4CCC5(CC4)CN(C(=O)Cc4ccc6c(c4)OCO6)CCO5)c3)C3CCCCC3)ccc(O)c2N1 [Example 140, 3-(3-((4-(2-(Benzo[d][1,3]dioxol-5-yl)acetyl)-1-oxa-4,9-diazaspiro[5.5]undecan-9-yl)methyl)phenethoxy)-N-cyclohexyl-N-(2-(2-(5-hydroxy-3-oxo-3,4-dihydro-2H-benzo[b][1,4]oxazin-8-yl)ethylamino)ethyl)propanamide] | 1 nM | 100% | 200 nM | 1.0 | 100% |
| CCc1cc(C(=O)N2CCOC3(CCN(Cc4cccc(CCOCCC(=O)N(CCNCCc5ccc(O)c6c5OCC(=O)N6)C5CCCCC5)c4)CC3)C2)cs1 [Example 144, N-Cyclohexyl-3-(3-((4-(5-ethylthiophene-3-carbonyl)-1-oxa-4,9-diazaspiro[5.5]undecan-9-yl)methyl)phenethoxy)-N-(2-(2-(5-hydroxy-3-oxo-3,4-dihydro-2H-benzo[b][1,4]oxazin-8-yl)ethylamino)ethyl)propanamide] | 0.158 nM | 100% | 39.8 nM | 1.0 | 100% |
| O=C1COc2c(CCNCCN(C(=O)CCOCCc3cccc(CN4CCC5(CC4)CN(C(=O)c4ccc(C(F)(F)F)cn4)CCO5)c3)C3CCCCC3)ccc(O)c2N1 [Example 149, N-Cyclohexyl-N-(2-(2-(5-hydroxy-3-oxo-3,4-dihydro-2H-benzo[b][1,4]oxazin-8-yl)ethylamino)ethyl)-3-(3-((4-(5-(trifluoromethyl)picolinoyl)-1-oxa-4,9-diazaspiro[5.5]undecan-9-yl)methyl)phenethoxy)propanamide] | 0.501 nM | 90% | 126 nM | 1.0 | 99% |
| O=C1COc2c(CCNCCN(C(=O)CCOCCc3cccc(CN4CCC5(CC4)CN(C(=O)c4ccc6cccnc6n4)CCO5)c3)C3CCCCC3)ccc(O)c2N1 [Example 161, 3-(3-((4-(1,8-Naphthyridine-2-carbonyl)-1-oxa-4,9-diazaspiro[5.5]undecan-9-yl)methyl)phenethoxy)-N-cyclohexyl-N-(2-(2-(5-hydroxy-3-oxo-3,4-dihydro-2H-benzo[b][1,4]oxazin-8-yl)ethylamino)ethyl)propanamide] | 0.501 nM | 97% | 39.8 nM | 1.0 | 100% |
| O=C1COc2c(CCNCCN(C(=O)CCOCCc3cccc(CN4CCC5(CC4)CN(C(=O)c4cccc(Cl)c4)CCO5)c3)C3CCCCC3)ccc(O)c2N1 [Example 164, 3-(3-((4-(3-Chlorobenzoyl)-1-oxa-4,9-diazaspiro[5.5]undecan-9-yl)methyl)phenethoxy)-N-cyclohexyl-N-(2-(2-(5-hydroxy-3-oxo-3,4-dihydro-2H-benzo[b][1,4]oxazin-8-yl)ethylamino)ethyl)propanamide] | 2.51 nM | 96% | 79.4 nM | 0.8 | 99% |

More lines, in order of falling IC50 [1], values ahead:

| IC50 [1] | percent of formoterol maximum response at 1 µM [2] | EC50 [3] | β2 Intrinsic Activity [3] | inhibition at 1 µM [4] | Compound |
| --- | --- | --- | --- | --- | --- |
| 3.16 nM | 104% | 79.4 nM | 0.5 | 99% | Cc1ccn2cc(C(=O)N3CCOC4(CCN(Cc5cccc(CCOCCC(=O)N(CCNCCc6ccc(O)c7c6OCC(=O)N7)C6CCCCC6)c5)CC4)C3)nc2c1 [Example 150, N-Cyclohexyl-N-(2-(2-(5-hydroxy-3-oxo-3,4-dihydro-2H-benzo[b][1,4]oxazin-8-yl)ethylamino)ethyl)-3-(3-((4-(7-methylimidazo[1,2-a]pyridine-2-carbonyl)-1-oxa-4,9-diazaspiro[5.5]undecan-9-yl)methyl)phenethoxy)propanamide] |
| 1.58 nM | 107% | 158 nM | 1.0 | 99% | CC(C)c1cc(C(=O)N2CCOC3(CCN(Cc4cccc(CCOCCC(=O)N(CCNCCc5ccc(O)c6c5OCC(=O)N6)C5CCCCC5)c4)CC3)C2)no1 [Example 147, N-Cyclohexyl-N-(2-(2-(5-hydroxy-3-oxo-3,4-dihydro-2H-benzo[b][1,4]oxazin-8-yl)ethylamino)ethyl)-3-(3-((4-(5-isopropylisoxazole-3-carbonyl)-1-oxa-4,9-diazaspiro[5.5]undecan-9-yl)methyl)phenethoxy)propanamide] |
| 1.58 nM | 97% | 63.1 nM | 0.8 | 101% | O=C1COc2c(CCNCCN(C(=O)CCOCCc3cccc(CN4CCC5(CC4)CN(C(=O)c4ccc6c(c4)OCO6)CCO5)c3)C3CCCCC3)ccc(O)c2N1 [Example 157, 3-(3-((4-(Benzo[d][1,3]dioxole-5-carbonyl)-1-oxa-4,9-diazaspiro[5.5]undecan-9-yl)methyl)phenethoxy)-N-cyclohexyl-N-(2-(2-(5-hydroxy-3-oxo-3,4-dihydro-2H-benzo[b][1,4]oxazin-8-yl)ethylamino)ethyl)propanamide] |
| 1.26 nM | 87% | 79.4 nM | 0.9 | 100% | Cc1ccoc1C(=O)N1CCOC2(CCN(Cc3cccc(CCOCCC(=O)N(CCNCCc4ccc(O)c5c4OCC(=O)N5)C4CCCCC4)c3)CC2)C1 [Example 159, N-Cyclohexyl-N-(2-(2-(5-hydroxy-3-oxo-3,4-dihydro-2H-benzo[b][1,4]oxazin-8-yl)ethylamino)ethyl)-3-(3-((4-(3-methylfuran-2-carbonyl)-1-oxa-4,9-diazaspiro[5.5]undecan-9-yl)methyl)phenethoxy)propanamide] |
| 1 nM | 99% | 79.4 nM | 1.1 | 100% | O=C1COc2c(CCNCCN(C(=O)CCOCCc3cccc(CN4CCC5(CC4)CN(C(=O)CCOc4ccccc4)CCO5)c3)C3CCCCC3)ccc(O)c2N1 [Example 165, N-Cyclohexyl-N-(2-(2-(5-hydroxy-3-oxo-3,4-dihydro-2H-benzo[b][1,4]oxazin-8-yl)ethylamino)ethyl)-3-(3-((4-(3-phenoxypropanoyl)-1-oxa-4,9-diazaspiro[5.5]undecan-9-yl)methyl)phenethoxy)propanamide] |
| 0.398 nM | 96% | 79.4 nM | 0.9 | 100% | O=C1COc2c(CCNCCN(C(=O)CCOCCc3cccc(CN4CCC5(CC4)CN(C(=O)c4cc6ccccn6n4)CCO5)c3)C3CCCCC3)ccc(O)c2N1 [Example 146, N-Cyclohexyl-N-(2-(2-(5-hydroxy-3-oxo-3,4-dihydro-2H-benzo[b][1,4]oxazin-8-yl)ethylamino)ethyl)-3-(3-((4-(pyrazolo[1,5-a]pyridine-2-carbonyl)-1-oxa-4,9-diazaspiro[5.5]undecan-9-yl)methyl)phenethoxy)propanamide] |
| 0.316 nM | 101% | 100 nM | 1.0 | 101% | Cc1ccc(C(=O)N2CCOC3(CCN(Cc4cccc(CCOCCC(=O)N(CCNCCc5ccc(O)c6c5OCC(=O)N6)C5CCCCC5)c4)CC3)C2)s1 [Example 154, N-Cyclohexyl-N-(2-(2-(5-hydroxy-3-oxo-3,4-dihydro-2H-benzo[b][1,4]oxazin-8-yl)ethylamino)ethyl)-3-(3-((4-(5-methylthiophene-2-carbonyl)-1-oxa-4,9-diazaspiro[5.5]undecan-9-yl)methyl)phenethoxy)propanamide] |
| 0.316 nM | 105% | 100 nM | 0.4 | 101% | O=C1COc2c(CCNCCN(C(=O)CCOCCc3cccc(CN4CCC5(CC4)CN(C(=O)[C@@H]4C[C@H]4c4ccccc4)CCO5)c3)C3CCCCC3)ccc(O)c2N1 [Example 167, N-Cyclohexyl-N-(2-(2-(5-hydroxy-3-oxo-3,4-dihydro-2H-benzo[b][1,4]oxazin-8-yl)ethylamino)ethyl)-3-(3-((4-((1R,2R)-2-phenylcyclopropanecarbonyl)-1-oxa-4,9-diazaspiro[5.5]undecan-9-yl)methyl)phenethoxy)propanamide] |
